Earlier results in patent publication US20120225135A1 (priority 2010, published 2012).

Tested on: biofilm
Conditions: cited from earlier work

| Compound | effect on biofilm | effect on biofilm detachment | other results |
| --- | --- | --- | --- |
| O=CCCCC=O [Glutaraldehyde] | no effect on biofilm |  |  |
| O=[O+][O-] [Ozone] | kill cells in the biofilm without any detachment of the biofilm |  |  |
| OO [hydrogen peroxide] |  | very poor to no effect |  |
| CC(=O)OO [peracetic acids] |  | very poor to no effect |  |
| chloramines |  |  | detachment of biofilms: very effective |
